Experimental data taken from ChEMBL document CHEMBL2086238, “Identification of ETP-46321, a potent and orally bioavailable PI3K α, δ inhibitor” (Bioorg Med Chem Lett, 2012).
pIC50: −log10 of the molar value.

Tests used:
[1] = target: CYP2D6 (Homo sapiens, UniProt P10635); assay: Inhibition of CYP2D6 at 10 uM; type: ADME
[2] = target: Serine/threonine-protein kinase pim-1 (Homo sapiens) (UniProt P11309); assay: Inhibition of PIM1 at 5 uM
[3] = target: Serine/threonine-protein kinase pim-2 (Homo sapiens) (UniProt Q9P1W9); assay: Inhibition of PIM2 at 1 uM
[4] = target: RAC-alpha serine/threonine-protein kinase (Homo sapiens) (UniProt P31749); assay: Inhibition of AKT1 at 1 uM
[5] = target: Insulin-like growth factor 1 receptor (Homo sapiens) (UniProt P08069); assay: Inhibition of IGF1R at 1 uM
[6] = target: Mitogen-activated protein kinase 8 (Homo sapiens) (UniProt P45983); assay: Inhibition of JNK1 at 5 uM
[7] = target: Focal adhesion kinase 1 (Homo sapiens) (UniProt Q05397); assay: Inhibition of FAK at 5 uM
[8] = target: Serine/threonine-protein kinase mTOR (Homo sapiens, UniProt P42345); assay: Inhibition of mTOR
[9] = target: Serine/threonine-protein kinase PAK 1 (Homo sapiens) (UniProt Q13153); assay: Inhibition of PAK1 at 5 uM
[10] = target: Mitogen-activated protein kinase 8 (Homo sapiens) (UniProt P45983); assay: Inhibition of JNK1 at 1 uM
[11] = target: Dual specificity mitogen-activated protein kinase kinase 1 (Homo sapiens) (UniProt Q02750); assay: Inhibition of MEK1 at 5 uM
[12] = target: Epidermal growth factor receptor (Homo sapiens) (UniProt P00533); assay: Inhibition of EGFR at 5 uM
[13] = target: Phosphatidylinositol 4,5-bisphosphate 3-kinase catalytic subunit alpha isoform (Homo sapiens, UniProt P42336); assay: Inhibition of PI3Kalpha in human U2OS cells assessed as inhibition of AKT Ser 473 phosphorylation by Western blot; type: cell-based
[14] = target: T1, Serine/threonine-protein kinase Sgk1 (Homo sapiens) (UniProt O00141); assay: Inhibition of SGK1 at 5 uM
T1 sequence (whole entry): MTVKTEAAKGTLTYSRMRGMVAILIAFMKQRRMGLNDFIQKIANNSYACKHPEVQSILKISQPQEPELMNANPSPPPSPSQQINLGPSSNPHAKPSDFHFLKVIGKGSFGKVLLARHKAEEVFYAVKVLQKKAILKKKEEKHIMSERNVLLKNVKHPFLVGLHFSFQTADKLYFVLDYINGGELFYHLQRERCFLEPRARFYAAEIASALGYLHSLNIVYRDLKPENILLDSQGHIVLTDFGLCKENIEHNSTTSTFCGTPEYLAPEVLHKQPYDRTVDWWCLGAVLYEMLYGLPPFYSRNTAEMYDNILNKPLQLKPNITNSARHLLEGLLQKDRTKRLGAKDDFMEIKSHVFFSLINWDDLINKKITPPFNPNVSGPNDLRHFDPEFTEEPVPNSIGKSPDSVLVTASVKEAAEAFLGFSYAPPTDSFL

[15] = target: CYP2C9 (Homo sapiens, UniProt P11712); assay: Inhibition of CYP2C9 at 10 uM; type: ADME
[16] = target: CYP3A4 (Homo sapiens, UniProt P08684); assay: Inhibition of CYP3A4 at 10 uM; type: ADME
[17] = target: Receptor-type tyrosine-protein kinase FLT3 (Homo sapiens) (UniProt P36888); assay: Inhibition of FLT3 at 1 uM
[18] = target: Epidermal growth factor receptor (Homo sapiens) (UniProt P00533); assay: Inhibition of EGFR at 1 uM
[19] = target: Serine/threonine-protein kinase pim-1 (Homo sapiens) (UniProt P11309); assay: Inhibition of PIM1 at 1 uM
[20] = target: Hepatocyte growth factor receptor (Homo sapiens) (UniProt P08581); assay: Inhibition of MET at 1 uM
[21] = target: Receptor-type tyrosine-protein kinase FLT3 (Homo sapiens) (UniProt P36888); assay: Inhibition of FLT3 at 5 uM
[22] = target: T2, Serine/threonine-protein kinase 4 (Homo sapiens) (UniProt Q13043); assay: Inhibition of MST1 at 1 uM
T2 sequence (whole entry): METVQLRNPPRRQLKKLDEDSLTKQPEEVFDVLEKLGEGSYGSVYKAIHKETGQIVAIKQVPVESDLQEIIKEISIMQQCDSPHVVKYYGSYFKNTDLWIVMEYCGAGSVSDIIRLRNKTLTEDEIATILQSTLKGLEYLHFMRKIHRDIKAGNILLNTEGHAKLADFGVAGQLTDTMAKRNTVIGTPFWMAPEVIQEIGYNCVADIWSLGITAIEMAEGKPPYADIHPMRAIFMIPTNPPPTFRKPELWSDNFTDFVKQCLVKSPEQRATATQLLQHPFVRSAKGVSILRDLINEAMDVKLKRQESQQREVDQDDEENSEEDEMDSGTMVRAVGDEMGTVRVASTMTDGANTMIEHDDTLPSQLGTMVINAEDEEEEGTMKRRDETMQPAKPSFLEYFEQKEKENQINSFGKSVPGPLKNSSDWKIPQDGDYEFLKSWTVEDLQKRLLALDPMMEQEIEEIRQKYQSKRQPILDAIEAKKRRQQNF

[23] = target: Serine/threonine-protein kinase pim-2 (Homo sapiens) (UniProt Q9P1W9); assay: Inhibition of PIM2 at 5 uM
[24] = target: Tyrosine-protein kinase JAK2 (Homo sapiens) (UniProt O60674); assay: Inhibition of JAK2 at 5 uM
[25] = Inhibition of PDGFR at 5 uM
[26] = target: Serine/threonine-protein kinase PAK 1 (Homo sapiens) (UniProt Q13153); assay: Inhibition of PAK1 at 1 uM
[27] = target: Casein kinase I isoform alpha (Homo sapiens) (UniProt P48729); assay: Inhibition of CK1alpha1 at 1 uM
[28] = target: Insulin receptor (Homo sapiens) (UniProt P06213); assay: Inhibition of INSR at 1 uM
[29] = target: Fibroblast growth factor receptor 1 (Homo sapiens) (UniProt P11362); assay: Inhibition of FGFR1 at 5 uM
[30] = target: Dual specificity tyrosine-phosphorylation-regulated kinase 1A (Homo sapiens) (UniProt Q13627); assay: Inhibition of DYRK1A at 5 uM

Phosphatidylinositol 4,5-bisphosphate 3-kinase catalytic subunit alpha isoform, sequence (P42336 whole entry, canonical isoform): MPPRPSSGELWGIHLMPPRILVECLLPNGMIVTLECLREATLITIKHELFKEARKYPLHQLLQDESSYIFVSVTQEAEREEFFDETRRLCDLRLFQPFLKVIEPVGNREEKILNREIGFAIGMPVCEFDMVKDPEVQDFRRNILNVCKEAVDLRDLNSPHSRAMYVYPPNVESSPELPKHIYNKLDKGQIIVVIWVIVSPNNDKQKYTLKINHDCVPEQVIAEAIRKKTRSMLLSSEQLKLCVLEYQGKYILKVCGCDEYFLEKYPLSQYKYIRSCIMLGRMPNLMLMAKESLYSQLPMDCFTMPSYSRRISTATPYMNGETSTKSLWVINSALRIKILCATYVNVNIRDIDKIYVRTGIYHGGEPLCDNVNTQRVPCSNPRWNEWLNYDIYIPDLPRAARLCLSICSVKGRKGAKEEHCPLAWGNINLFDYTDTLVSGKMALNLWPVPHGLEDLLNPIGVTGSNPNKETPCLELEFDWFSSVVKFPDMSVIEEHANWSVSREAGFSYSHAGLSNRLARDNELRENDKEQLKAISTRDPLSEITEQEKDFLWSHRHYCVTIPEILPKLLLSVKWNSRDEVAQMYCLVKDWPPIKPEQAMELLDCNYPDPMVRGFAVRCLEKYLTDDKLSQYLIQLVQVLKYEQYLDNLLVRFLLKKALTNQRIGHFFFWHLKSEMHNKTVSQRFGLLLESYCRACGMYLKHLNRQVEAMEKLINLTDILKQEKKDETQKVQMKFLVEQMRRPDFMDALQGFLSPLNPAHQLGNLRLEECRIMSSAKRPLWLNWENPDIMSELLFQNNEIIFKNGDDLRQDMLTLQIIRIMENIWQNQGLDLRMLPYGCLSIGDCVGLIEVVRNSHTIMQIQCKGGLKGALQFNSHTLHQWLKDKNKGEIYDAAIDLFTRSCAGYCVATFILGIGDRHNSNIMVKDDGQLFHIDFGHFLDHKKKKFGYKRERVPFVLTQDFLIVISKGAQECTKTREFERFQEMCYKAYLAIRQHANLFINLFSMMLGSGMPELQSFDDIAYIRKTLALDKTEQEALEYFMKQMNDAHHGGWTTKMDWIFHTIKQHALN
Mitogen-activated protein kinase 8 (Homo sapiens), sequence (P45983 whole entry): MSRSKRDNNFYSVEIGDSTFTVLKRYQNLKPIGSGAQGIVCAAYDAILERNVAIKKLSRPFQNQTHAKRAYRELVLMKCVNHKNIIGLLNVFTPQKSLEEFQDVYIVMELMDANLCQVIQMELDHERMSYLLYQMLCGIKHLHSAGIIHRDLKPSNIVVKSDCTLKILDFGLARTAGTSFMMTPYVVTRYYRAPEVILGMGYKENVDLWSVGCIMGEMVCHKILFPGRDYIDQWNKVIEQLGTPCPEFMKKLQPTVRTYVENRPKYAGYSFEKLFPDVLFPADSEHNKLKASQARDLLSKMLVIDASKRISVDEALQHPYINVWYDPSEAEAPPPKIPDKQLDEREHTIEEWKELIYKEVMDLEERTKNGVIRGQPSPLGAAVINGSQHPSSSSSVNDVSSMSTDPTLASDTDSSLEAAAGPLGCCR
Serine/threonine-protein kinase PAK 1 (Homo sapiens), sequence (Q13153 whole entry, canonical isoform): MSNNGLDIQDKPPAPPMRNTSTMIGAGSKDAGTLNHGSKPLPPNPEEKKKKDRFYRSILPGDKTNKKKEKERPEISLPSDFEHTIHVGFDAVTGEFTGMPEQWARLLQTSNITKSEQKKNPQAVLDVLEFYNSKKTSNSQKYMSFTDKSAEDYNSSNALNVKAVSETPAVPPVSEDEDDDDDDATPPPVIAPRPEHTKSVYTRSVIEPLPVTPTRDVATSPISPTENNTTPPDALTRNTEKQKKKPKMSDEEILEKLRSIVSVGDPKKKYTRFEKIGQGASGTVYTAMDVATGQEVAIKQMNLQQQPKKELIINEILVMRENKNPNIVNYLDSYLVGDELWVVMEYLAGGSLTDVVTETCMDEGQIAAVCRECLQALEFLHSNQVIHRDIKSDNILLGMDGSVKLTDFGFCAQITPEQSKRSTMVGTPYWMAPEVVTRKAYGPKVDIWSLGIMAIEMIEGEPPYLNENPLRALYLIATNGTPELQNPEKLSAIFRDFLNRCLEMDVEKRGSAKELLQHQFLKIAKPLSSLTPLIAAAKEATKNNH
Casein kinase I isoform alpha (Homo sapiens), sequence (P48729 2-337 limits assumed): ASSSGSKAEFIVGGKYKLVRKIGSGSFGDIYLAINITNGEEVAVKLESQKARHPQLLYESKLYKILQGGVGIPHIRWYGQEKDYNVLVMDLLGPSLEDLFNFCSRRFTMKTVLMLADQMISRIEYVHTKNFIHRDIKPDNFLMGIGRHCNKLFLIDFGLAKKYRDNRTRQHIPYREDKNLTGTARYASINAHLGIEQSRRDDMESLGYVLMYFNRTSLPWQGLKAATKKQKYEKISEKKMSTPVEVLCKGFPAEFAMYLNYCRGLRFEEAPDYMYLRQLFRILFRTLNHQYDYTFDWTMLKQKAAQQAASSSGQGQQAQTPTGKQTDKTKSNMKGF
CYP3A4, sequence (P08684 whole entry): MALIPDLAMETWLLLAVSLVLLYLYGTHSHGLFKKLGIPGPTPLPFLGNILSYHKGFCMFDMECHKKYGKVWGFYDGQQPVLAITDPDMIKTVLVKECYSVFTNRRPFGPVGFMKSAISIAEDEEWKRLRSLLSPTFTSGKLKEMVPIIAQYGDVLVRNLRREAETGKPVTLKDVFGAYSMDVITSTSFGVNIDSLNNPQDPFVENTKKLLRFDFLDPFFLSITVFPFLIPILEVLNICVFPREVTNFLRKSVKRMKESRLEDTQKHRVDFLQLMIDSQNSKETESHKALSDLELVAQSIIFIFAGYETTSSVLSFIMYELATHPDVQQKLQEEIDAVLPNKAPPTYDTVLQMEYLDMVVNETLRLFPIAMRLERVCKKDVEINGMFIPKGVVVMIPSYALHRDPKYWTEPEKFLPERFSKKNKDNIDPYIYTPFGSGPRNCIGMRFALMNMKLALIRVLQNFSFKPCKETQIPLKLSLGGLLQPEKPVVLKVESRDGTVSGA
Dual specificity mitogen-activated protein kinase kinase 1 (Homo sapiens), sequence (Q02750 whole entry): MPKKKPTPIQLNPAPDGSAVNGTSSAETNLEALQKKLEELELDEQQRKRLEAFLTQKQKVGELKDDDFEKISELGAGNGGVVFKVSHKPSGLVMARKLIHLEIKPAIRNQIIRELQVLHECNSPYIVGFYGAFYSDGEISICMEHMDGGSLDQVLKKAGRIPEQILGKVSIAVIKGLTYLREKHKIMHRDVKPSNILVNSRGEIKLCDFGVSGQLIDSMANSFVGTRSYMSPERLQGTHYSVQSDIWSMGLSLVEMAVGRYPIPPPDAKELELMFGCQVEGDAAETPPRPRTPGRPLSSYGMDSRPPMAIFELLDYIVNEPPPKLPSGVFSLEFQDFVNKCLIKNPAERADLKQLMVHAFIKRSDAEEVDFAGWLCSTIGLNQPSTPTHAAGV
Tyrosine-protein kinase JAK2 (Homo sapiens), sequence (O60674 whole entry): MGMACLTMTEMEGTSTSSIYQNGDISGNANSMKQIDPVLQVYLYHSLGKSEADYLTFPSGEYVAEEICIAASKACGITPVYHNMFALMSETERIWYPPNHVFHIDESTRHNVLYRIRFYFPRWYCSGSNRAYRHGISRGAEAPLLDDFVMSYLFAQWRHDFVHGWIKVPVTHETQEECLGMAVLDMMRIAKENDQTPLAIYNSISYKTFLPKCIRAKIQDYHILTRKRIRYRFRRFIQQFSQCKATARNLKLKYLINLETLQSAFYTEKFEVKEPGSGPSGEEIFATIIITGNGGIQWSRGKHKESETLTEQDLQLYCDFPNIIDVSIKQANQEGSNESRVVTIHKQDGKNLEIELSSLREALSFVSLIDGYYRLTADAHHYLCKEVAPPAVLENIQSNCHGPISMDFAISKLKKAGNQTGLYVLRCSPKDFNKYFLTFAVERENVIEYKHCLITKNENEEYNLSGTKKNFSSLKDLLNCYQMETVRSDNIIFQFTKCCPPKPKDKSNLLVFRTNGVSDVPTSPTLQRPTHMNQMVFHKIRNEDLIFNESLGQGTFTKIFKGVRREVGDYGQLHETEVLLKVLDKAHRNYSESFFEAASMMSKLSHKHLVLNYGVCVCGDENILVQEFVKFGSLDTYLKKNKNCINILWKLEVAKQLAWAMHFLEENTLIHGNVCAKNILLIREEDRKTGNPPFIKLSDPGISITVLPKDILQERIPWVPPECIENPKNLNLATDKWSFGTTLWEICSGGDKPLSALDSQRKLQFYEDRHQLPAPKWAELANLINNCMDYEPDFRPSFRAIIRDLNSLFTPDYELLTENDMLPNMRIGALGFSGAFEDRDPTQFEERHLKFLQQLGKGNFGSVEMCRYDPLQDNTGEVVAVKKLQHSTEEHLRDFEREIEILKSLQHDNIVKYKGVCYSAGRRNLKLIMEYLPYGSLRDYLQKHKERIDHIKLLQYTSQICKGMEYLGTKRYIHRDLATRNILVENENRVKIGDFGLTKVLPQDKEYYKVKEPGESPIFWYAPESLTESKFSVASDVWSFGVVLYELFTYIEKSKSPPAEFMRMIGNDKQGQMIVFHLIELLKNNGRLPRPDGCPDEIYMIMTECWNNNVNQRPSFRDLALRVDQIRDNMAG
Serine/threonine-protein kinase pim-2 (Homo sapiens), sequence (Q9P1W9 whole entry, looked up): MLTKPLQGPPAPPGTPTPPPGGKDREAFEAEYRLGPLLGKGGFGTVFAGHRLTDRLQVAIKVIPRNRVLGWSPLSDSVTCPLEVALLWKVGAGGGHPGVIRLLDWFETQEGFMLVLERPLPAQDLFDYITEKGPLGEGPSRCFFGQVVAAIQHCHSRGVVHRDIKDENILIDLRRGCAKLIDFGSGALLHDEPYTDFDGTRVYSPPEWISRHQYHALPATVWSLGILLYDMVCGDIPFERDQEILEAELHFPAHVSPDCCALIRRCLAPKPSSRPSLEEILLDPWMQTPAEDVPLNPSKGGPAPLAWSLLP

| SMILES | inhibition [2] | inhibition [3] | inhibition [4] | inhibition [5] | inhibition [6] | inhibition [7] | inhibition [9] | inhibition [10] | inhibition [11] | inhibition [12] | inhibition [14] | inhibition [17] | inhibition [18] | inhibition [19] | inhibition [20] | inhibition [21] | inhibition [22] | inhibition [23] | inhibition [24] | inhibition [25] | also measured |
| --- | --- | --- | --- | --- | --- | --- | --- | --- | --- | --- | --- | --- | --- | --- | --- | --- | --- | --- | --- | --- | --- |
| CS(=O)(=O)N1CCN(Cc2cn3c(Cl)c(-c4cnc(N)nc4)nc(N4CCOCC4)c3n2)CC1 | < 30% | < 30% | < 30% | < 30% | < 30% | < 30% | < 30% | < 30% | < 30% | < 30% | < 30% | < 30% | < 30% | < 30% | < 30% | < 30% | < 30% | < 30% | < 30% | < 30% | inhibition at 10 µM [1]: < 30%; pIC50 [8]: 5.24; pIC50 [13]: 8.28; inhibition at 10 µM [15]: < 30%; inhibition at 10 µM [16]: < 30%; inhibition [26]: < 30%; inhibition [27]: < 30%; inhibition [28]: < 30%; inhibition [29]: < 30%; inhibition [30]: < 30% |
| CS(=O)(=O)N1CCN(Cc2nc3c(N4CCOCC4)nc(-c4cnc(N)nc4)cn3c2Br)CC1 | < 30% | < 30% | < 30% | < 30% | < 30% | < 30% | < 30% | < 30% | < 30% | < 30% | < 30% | < 30% | < 30% | < 30% | < 30% | < 30% | < 30% | < 30% | < 30% | < 30% | inhibition at 10 µM [1]: < 30%; pIC50 [8]: 5.29; pIC50 [13]: 8.09; inhibition at 10 µM [15]: < 30%; inhibition at 10 µM [16]: < 30%; inhibition [26]: < 30%; inhibition [27]: < 30%; inhibition [28]: < 30%; inhibition [29]: < 30%; inhibition [30]: < 30% |
| CS(=O)(=O)N1CCN(Cc2cn3cc(-c4cnc(N)nc4)nc(N4CCOCC4)c3n2)CC1 | < 30% | < 30% | < 30% | < 30% | < 30% | < 30% | < 30% | < 30% | < 30% | < 30% | < 30% | < 30% | < 30% | < 30% | < 30% | < 30% | < 30% | < 30% | < 30% | < 30% | inhibition at 10 µM [1]: < 30%; pIC50 [8]: 5.31; inhibition at 10 µM [15]: < 30%; inhibition at 10 µM [16]: < 30%; inhibition [26]: < 30%; inhibition [27]: < 30%; inhibition [28]: < 30%; inhibition [29]: < 30%; inhibition [30]: < 30% |
| Cc1nc(N)ncc1-c1cn2cc(CN3CCN(S(C)(=O)=O)CC3)nc2c(N2CCOCC2)n1 | < 30% | < 30% | < 30% | < 30% | < 30% | < 30% | < 30% | < 30% | < 30% | < 30% | < 30% | < 30% | < 30% | < 30% | < 30% | < 30% | < 30% | < 30% | < 30% | < 30% | inhibition [26]: < 30%; inhibition [27]: < 30%; inhibition [28]: < 30%; inhibition [29]: < 30%; inhibition [30]: < 30% |
| Cc1c(CN2CCN(S(C)(=O)=O)CC2)nc2c(N3CCOCC3)nc(-c3cnc(N)nc3)cn12 | < 30% | < 30% | < 30% | < 30% | < 30% | < 30% | < 30% | < 30% | < 30% | < 30% | < 30% | < 30% | < 30% | < 30% | < 30% | < 30% | < 30% | < 30% | < 30% | < 30% | inhibition at 10 µM [1]: < 30%; pIC50 [8]: 5.90; pIC50 [13]: 7.81; inhibition at 10 µM [15]: < 30%; inhibition at 10 µM [16]: < 30%; inhibition [26]: < 30%; inhibition [27]: < 30%; inhibition [28]: < 30%; inhibition [29]: < 30%; inhibition [30]: < 30% |
